ChEMBL document CHEMBL3991601, “The target landscape of clinical kinase drugs” (Science, 2017)
Calls of active or inactive are those of the source.

Legend:
[1] = molecular target: T1, Calcium/calmodulin-dependent protein kinase type IV (Homo sapiens, UniProt Q16566)
T1 sequence (Q16566 whole entry): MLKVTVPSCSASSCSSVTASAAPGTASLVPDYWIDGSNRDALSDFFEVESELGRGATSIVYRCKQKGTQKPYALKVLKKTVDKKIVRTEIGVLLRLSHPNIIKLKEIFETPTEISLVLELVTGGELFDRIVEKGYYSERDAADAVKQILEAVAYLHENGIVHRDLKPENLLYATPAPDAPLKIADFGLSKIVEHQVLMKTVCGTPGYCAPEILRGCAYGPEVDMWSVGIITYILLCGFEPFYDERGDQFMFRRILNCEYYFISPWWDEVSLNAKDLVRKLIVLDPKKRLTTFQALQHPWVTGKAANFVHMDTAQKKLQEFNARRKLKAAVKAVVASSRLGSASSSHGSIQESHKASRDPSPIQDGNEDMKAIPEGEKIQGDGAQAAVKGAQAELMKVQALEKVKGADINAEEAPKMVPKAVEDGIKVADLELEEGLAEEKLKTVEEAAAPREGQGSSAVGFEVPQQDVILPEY

[2] = molecular target: T2, Dual specificity mitogen-activated protein kinase kinase 5 (Homo sapiens, UniProt Q13163)
T2 sequence (Q13163 whole entry): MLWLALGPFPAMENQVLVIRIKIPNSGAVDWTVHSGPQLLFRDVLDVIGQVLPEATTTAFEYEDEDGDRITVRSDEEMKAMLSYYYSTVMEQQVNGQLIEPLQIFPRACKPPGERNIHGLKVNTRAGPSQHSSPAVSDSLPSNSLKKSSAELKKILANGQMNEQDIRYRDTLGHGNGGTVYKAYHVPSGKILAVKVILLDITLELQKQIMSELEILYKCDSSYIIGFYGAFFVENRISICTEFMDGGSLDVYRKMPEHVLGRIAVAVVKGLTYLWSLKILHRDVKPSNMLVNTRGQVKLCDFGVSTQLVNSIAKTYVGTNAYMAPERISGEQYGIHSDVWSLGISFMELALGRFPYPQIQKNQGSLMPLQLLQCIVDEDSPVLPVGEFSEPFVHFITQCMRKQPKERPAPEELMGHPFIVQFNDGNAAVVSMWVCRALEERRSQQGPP

[3] = molecular target: T3, MAP kinase-activated protein kinase 5 (Homo sapiens, UniProt Q8IW41)
T3 sequence (Q8IW41 whole entry): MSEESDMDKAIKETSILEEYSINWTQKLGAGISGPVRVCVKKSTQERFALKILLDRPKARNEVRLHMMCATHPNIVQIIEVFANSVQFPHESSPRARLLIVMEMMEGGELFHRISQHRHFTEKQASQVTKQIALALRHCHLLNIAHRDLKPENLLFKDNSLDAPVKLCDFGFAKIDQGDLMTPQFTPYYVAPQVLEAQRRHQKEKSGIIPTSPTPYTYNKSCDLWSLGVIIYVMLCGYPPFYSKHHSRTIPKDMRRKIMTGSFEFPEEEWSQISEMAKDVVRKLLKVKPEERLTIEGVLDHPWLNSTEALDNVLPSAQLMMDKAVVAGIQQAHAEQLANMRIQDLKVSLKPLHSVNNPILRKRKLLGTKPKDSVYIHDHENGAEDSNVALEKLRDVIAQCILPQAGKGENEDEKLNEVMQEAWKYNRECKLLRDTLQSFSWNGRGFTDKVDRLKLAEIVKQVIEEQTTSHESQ

[4] = molecular target: T4, Serine/threonine-protein kinase Nek2 (Homo sapiens, UniProt P51955)
T4 sequence (P51955 whole entry): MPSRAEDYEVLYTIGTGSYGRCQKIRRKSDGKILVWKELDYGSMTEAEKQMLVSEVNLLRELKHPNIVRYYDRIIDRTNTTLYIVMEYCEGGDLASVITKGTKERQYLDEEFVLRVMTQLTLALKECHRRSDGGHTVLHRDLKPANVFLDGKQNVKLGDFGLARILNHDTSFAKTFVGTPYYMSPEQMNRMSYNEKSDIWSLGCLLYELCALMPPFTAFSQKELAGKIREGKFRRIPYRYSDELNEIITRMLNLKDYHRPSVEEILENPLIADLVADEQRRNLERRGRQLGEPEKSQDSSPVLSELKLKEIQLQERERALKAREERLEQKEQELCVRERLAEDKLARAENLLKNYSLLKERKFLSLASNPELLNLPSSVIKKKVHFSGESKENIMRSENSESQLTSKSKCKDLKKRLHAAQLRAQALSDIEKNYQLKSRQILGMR

[5] = molecular target: Protein kinase C beta type (Homo sapiens, UniProt P05771)
[6] = molecular target: Non-receptor tyrosine-protein kinase TYK2 (Homo sapiens, UniProt P29597)
Note: in the data inactive means no Kd found up to 30 µM.

Chain of Protein kinase C beta type (P05771 whole entry): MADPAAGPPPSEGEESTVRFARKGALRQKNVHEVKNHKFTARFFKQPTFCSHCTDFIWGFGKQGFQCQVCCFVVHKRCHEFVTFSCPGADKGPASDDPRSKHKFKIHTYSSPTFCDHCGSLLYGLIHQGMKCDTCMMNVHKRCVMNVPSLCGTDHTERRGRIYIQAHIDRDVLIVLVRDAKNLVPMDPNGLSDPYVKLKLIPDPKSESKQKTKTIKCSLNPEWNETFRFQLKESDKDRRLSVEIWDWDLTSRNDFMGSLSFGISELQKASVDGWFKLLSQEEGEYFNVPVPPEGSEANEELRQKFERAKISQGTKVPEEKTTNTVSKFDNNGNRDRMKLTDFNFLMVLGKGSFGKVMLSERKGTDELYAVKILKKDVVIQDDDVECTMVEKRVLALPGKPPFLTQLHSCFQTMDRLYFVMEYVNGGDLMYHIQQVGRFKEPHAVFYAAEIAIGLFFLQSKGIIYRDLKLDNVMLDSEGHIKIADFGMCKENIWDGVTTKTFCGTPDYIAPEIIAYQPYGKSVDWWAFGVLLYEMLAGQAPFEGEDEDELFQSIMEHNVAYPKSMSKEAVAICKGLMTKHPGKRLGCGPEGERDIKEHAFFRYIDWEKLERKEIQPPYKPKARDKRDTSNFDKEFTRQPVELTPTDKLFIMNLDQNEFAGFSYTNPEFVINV
Chain of Non-receptor tyrosine-protein kinase TYK2 (P29597 whole entry): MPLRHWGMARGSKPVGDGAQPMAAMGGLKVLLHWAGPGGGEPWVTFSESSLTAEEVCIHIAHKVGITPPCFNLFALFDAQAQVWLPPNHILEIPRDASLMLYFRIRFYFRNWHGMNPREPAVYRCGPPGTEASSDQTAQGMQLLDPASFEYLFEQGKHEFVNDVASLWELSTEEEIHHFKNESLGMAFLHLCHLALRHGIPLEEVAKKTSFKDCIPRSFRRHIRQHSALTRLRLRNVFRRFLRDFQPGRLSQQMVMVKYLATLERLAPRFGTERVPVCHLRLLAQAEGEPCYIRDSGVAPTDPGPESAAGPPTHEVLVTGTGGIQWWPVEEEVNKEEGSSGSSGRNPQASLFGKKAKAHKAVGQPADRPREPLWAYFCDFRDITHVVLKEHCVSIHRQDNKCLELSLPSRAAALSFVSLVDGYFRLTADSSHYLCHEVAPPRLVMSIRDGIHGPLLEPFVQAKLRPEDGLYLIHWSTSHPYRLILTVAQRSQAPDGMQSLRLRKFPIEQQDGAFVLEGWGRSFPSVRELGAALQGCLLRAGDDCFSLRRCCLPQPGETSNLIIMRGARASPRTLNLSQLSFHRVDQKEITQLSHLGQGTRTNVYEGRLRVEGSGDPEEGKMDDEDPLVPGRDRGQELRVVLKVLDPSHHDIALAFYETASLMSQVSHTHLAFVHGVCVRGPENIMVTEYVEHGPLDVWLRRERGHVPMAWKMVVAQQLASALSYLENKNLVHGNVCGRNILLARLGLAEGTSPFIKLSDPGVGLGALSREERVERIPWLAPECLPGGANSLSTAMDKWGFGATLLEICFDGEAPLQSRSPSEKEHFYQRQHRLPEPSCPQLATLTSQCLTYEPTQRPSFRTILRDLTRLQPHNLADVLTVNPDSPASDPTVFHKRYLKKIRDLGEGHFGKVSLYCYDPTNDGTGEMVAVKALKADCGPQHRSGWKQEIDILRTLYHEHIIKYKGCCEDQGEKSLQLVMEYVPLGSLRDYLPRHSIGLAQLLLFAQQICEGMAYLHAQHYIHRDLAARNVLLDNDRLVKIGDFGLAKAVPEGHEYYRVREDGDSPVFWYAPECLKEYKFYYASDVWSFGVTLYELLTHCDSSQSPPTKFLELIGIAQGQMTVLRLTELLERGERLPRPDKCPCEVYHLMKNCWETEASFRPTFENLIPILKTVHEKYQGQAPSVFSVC

SMILES | Kd [1] | Kd [2] | Kd [3] | Kd [4] | Kd [5] | Kd [6]
FC(F)(F)c1ccc(/C=C/c2nc(COc3ccc(CCCCn4ccnn4)cc3)co2)cc1 [MUBRITINIB] | > 30 µM (inactive) | > 30 µM (inactive) | > 30 µM (inactive) | > 30 µM (inactive) | > 30 µM (inactive) | > 30 µM (inactive)
COc1ncc(-c2ccc3nccc(-c4ccnnc4)c3c2)cc1NS(=O)(=O)c1ccc(F)cc1F [OMIPALISIB] | > 30 µM (inactive) | > 30 µM (inactive) | > 30 µM (inactive) | > 30 µM (inactive) | > 30 µM (inactive) | > 30 µM (inactive)
CCCCCCCCCCCCCCCCCCOP(=O)([O-])OC1CC[N+](C)(C)CC1 [PERIFOSINE] | > 30 µM (inactive) | > 30 µM (inactive) | > 30 µM (inactive) | > 30 µM (inactive) | > 30 µM (inactive) | > 30 µM (inactive)
CNC(=O)c1cc(Oc2ccc(NC(=O)Nc3cc(C(C)(C)C)nn3-c3ccc4ncccc4c3)c(F)c2)ccn1 [REBASTINIB] | > 30 µM (inactive) | > 30 µM (inactive) | > 30 µM (inactive) | > 30 µM (inactive) | > 30 µM (inactive) | > 30 µM (inactive)
CO[C@H]1C[C@@H]2CC[C@@H](C)[C@@](O)(O2)C(=O)C(=O)N2CCCC[C@H]2C(=O)O[C@H]([C@H](C)C[C@@H]2CC[C@@H](OP(C)(C)=O)[C@H](OC)C2)CC(=O)[C@H](C)/C=C(\C)[C@@H](O)[C@@H](OC)C(=O)[C@H](C)C[C@H](C)/C=C/C=C/C=C/1C [RIDAFOROLIMUS] | > 30 µM (inactive) | > 30 µM (inactive) | > 30 µM (inactive) | > 30 µM (inactive) | > 30 µM (inactive) | > 30 µM (inactive)
O=c1[nH]ccc2cc(OC3CCNCC3)ccc12 [SAR-407899 FREE BASE] | > 30 µM (inactive) | > 30 µM (inactive) | > 30 µM (inactive) | > 30 µM (inactive) | > 30 µM (inactive) | > 30 µM (inactive)
CO[C@H]1C[C@@H]2CC[C@@H](C)[C@@](O)(O2)C(=O)C(=O)N2CCCC[C@H]2C(=O)O[C@H]([C@H](C)C[C@@H]2CC[C@@H](O)[C@H](OC)C2)CC(=O)[C@H](C)/C=C(\C)[C@@H](O)[C@@H](OC)C(=O)[C@H](C)C[C@H](C)/C=C/C=C/C=C/1C [SIROLIMUS] | > 30 µM (inactive) | > 30 µM (inactive) | > 30 µM (inactive) | > 30 µM (inactive) | > 30 µM (inactive) | > 30 µM (inactive)
CO[C@H]1C[C@@H]2CC[C@@H](C)[C@@](O)(O2)C(=O)C(=O)N2CCCC[C@H]2C(=O)O[C@H]([C@H](C)C[C@@H]2CC[C@@H](OC(=O)C(C)(CO)CO)[C@H](OC)C2)CC(=O)[C@H](C)/C=C(\C)[C@@H](O)[C@@H](OC)C(=O)[C@H](C)C[C@H](C)/C=C/C=C/C=C/1C [TEMSIROLIMUS] | > 30 µM (inactive) | > 30 µM (inactive) | > 30 µM (inactive) | > 30 µM (inactive) | > 30 µM (inactive) | > 30 µM (inactive)
O=C(Cc1ccc(-c2ccc(OCCN3CCOCC3)cc2)cn1)NCc1ccccc1 [TIRBANIBULIN] | > 30 µM (inactive) | > 30 µM (inactive) | > 30 µM (inactive) | > 30 µM (inactive) | > 30 µM (inactive) | > 30 µM (inactive)
O=C1NC(=O)[C@@H](c2cn3c4c(cccc24)CCC3)[C@@H]1c1c[nH]c2ccccc12 [TIVANTINIB] | > 30 µM (inactive) | > 30 µM (inactive) | > 30 µM (inactive) | > 30 µM (inactive) | > 30 µM (inactive) | > 30 µM (inactive)
Cc1cc(Nc2ncnc3ccc(NC4=NC(C)(C)CO4)cc23)ccc1Oc1ccn2ncnc2c1 [TUCATINIB] | > 30 µM (inactive) | > 30 µM (inactive) | > 30 µM (inactive) | > 30 µM (inactive) | > 30 µM (inactive) | > 30 µM (inactive)
C[C@@H](N)c1ccc(C(=O)Nc2ccnc3[nH]ccc23)cc1 [Y-39983] | > 30 µM (inactive) | > 30 µM (inactive) | > 30 µM (inactive) | > 30 µM (inactive) | 6.03 µM (active) | > 30 µM (inactive)

Other lines, results leading:

Kd [1] | Kd [2] | Kd [3] | Kd [4] | Kd [5] | Kd [6] | SMILES
> 30 µM (inactive) | > 30 µM (inactive) | > 30 µM (inactive) | > 30 µM (inactive) | > 30 µM (inactive) | > 30 µM (inactive) | CN(C[C@@H]1COCCO1)S(=O)(=O)Nc1ccc2ccc3ncc(-c4cnn(C)c4)cc3c(=O)c2c1 [MK-2461]
> 30 µM (inactive) | > 30 µM (inactive) | > 30 µM (inactive) | > 30 µM (inactive) | > 30 µM (inactive) | > 30 µM (inactive) | Cn1cc(-c2cnc3ccc4ccc(CS(=O)(=O)NCc5ccccn5)cc4c(=O)c3c2)cn1 [MK-8033]
0.408 µM (active) | > 30 µM (inactive) | > 30 µM (inactive) | > 30 µM (inactive) | 5.89 µM (active) | > 30 µM (inactive) | Cc1nc(Nc2n[nH]c3c2CN(C(=O)N[C@H](CN(C)C)c2ccccc2)C3(C)C)c2sccc2n1 [PF-03758309]
> 30 µM (inactive) | > 30 µM (inactive) | > 30 µM (inactive) | > 30 µM (inactive) | > 30 µM (inactive) | > 30 µM (inactive) | Cc1cnc(NC(=O)Nc2cc(Br)c(C)cc2OC[C@@H]2CNCCO2)cn1 [RABUSERTIB]
> 30 µM (inactive) | > 30 µM (inactive) | > 30 µM (inactive) | > 30 µM (inactive) | > 30 µM (inactive) | > 30 µM (inactive) | N#CC1(c2ccc(NC(=O)c3cccnc3NCc3ccncc3)cc2)CCCC1 [RIVOCERANIB]
> 30 µM (inactive) | 0.609 µM (active) | > 30 µM (inactive) | > 30 µM (inactive) | > 30 µM (inactive) | > 30 µM (inactive) | Cn1cc(-c2cnn3c(N)c(Br)c([C@@H]4CCCNC4)nc23)cn1 [SCH-900776]
> 30 µM (inactive) | 6.8 µM (active) | > 30 µM (inactive) | > 30 µM (inactive) | > 30 µM (inactive) | > 30 µM (inactive) | CCS(=O)(=O)c1cccc(-c2cc(C(=O)NC3CCN(C)CC3)c(C)c3[nH]c4ncc(C)cc4c23)c1 [TAK-901]
> 30 µM (inactive) | 65.7 µM (active) | > 30 µM (inactive) | > 30 µM (inactive) | > 30 µM (inactive) | > 30 µM (inactive) | COc1cc2c(Nc3ccc(Cl)c(Cl)c3F)ncnc2cc1OC[C@@H]1C[C@@H]2CN(C)C[C@@H]2C1 [TESEVATINIB]
> 30 µM (inactive) | > 30 µM (inactive) | > 30 µM (inactive) | > 30 µM (inactive) | > 30 µM (inactive) | > 30 µM (inactive) | C[C@@H](NC(=O)c1ncnc(N)c1Cl)c1ncc(C(=O)Nc2cc(C(F)(F)F)c(Cl)cn2)s1 [TOVORAFENIB]
> 30 µM (inactive) | > 30 µM (inactive) | > 30 µM (inactive) | > 30 µM (inactive) | > 30 µM (inactive) | > 30 µM (inactive) | CC(C)c1cc(CNc2nc(Nc3cc(C4CC4)[nH]n3)cc(N3CCN(C)CC3)n2)on1 [XL-228]
